Results reported in patent US20160154928A1, “SYSTEMS, METHODS, AND ENVIRONMENT FOR AUTOMATED REVIEW OF GENOMIC DATA TO IDENTIFY DOWNREGULATED AND/OR UPREGULATED GENE EXPRESSION INDICATIVE OF A DISEASE OR CONDITION” (IMMUNEERING CORPORATION, priority 2013, published 2016).
Values joined by “and” are separate entries in the source; they are usually repeats but may differ in a detail not shown here. Identical values can stand only once.

Legend:
SNAP25 expression = assay: CMAP (Connectivity Map) expression profiles of cultured cells treated with compounds, searched for increased SNAP25 expression (single-sample Wilcox test); assay type: cell-based
Text: The CMAP dataset is a large collection of microarray-based transcriptional signatures that includes over 7,000 expression profiles from cultured cells treated with 1,309 compounds. The full CMAP (builds 01 and 02) datasets were obtained from the Broad Institute. […] The output p-values were adjusted for multiple hypothesis testing (FDR p value <0.05).

mouse models of AD = conditions: cited from earlier work
female mouse model of AD = conditions: cited from earlier work
NEUROD6 expression = assay: CMAP (Connectivity Map) expression profiles of cultured cells treated with compounds, searched for increased NEUROD6 expression (single-sample Wilcox test); assay type: cell-based; conditions: for p.val (compounds identified to upregulate enriched NEUROD6 expression): single-sample Wilcox test on CMAP expression profiles, cultured cells after treatment
Text: The full CMAP (builds 01 and 02) datasets were obtained from the Broad Institute. […] The output p-values were adjusted for multiple hypothesis testing (FDR p value <0.05).

mouse model of AD = conditions: cited from earlier work

## CCCC(CCC)C(=O)O [valproic acid]
SNAP25 expression; CMAP analysis, in words
  effect on SNAP25 expression: significantly elevate SNAP25 expression
Mouse models of AD
  Aβ production: limit Aβ production
  behavioral deficits: limit Aβ production and behavioral deficits
  loss of neurons: protect against loss of neurons

## O=CC[C@@H](O)[C@H](O)[C@H](O)CO [2-deoxy-D-glucose]
Female mouse model of AD
  pathology: reduce pathology

## C=C1C[C@@H](O)[C@H](/C=C/[C@@H](O)C(C)(C)CCCC)[C@H]1C/C=C\CCCC(=O)O [meteneprost]
NEUROD6 expression
  p.val (compounds identified to upregulate enriched NEUROD6 expression): 2.05E−04

## CN(C(=O)C(Cl)Cl)c1ccc(O)cc1 [diloxanide]
SNAP25 expression; single-sample Wilcox test on CMAP expression profiles, cultured cells after treatment
  p.val (compounds identified to upregulate enriched SNAP25 expression): 1.28E−04

## C[C@@H]1C[C@H]2O[C@@H]2/C=C\C=C\C(=O)Cc2c(Cl)c(O)cc(O)c2C(=O)O1 [monorden]
NEUROD6 expression
  p.val (compounds identified to upregulate enriched NEUROD6 expression): 2.17E−04 and 2.82E−04

## CCN1C[C@]2(C)CC[C@H](O)[C@]34C1[C@@H](C[C@H]23)[C@@]1(O)C[C@H](OC)[C@H]2C[C@@H]4[C@@H]1[C@H]2O [karakoline]
Mouse model of AD
  cognitive function: improve cognitive function

## CC(C)c1ccc2c(c1)c(SC(C)(C)C)c(CC(C)(C)C(=O)O)n2Cc1ccc(Cl)cc1 [MK-886]
NEUROD6 expression
  p.val (compounds identified to upregulate enriched NEUROD6 expression): 2.46E−04

## O=c1c(-c2ccc(O)cc2)coc2cc(O)cc(O)c12 [genistein]
NEUROD6 expression; CMAP analysis, in words
  effect on NEUROD6 expression: significantly elevate expression of NEUROD6
